These results are taken from patent US10206908B2, “3-(1H-pyrrolo[3,2-C]pyridin-2-YL)-1H-pyrazolo[3,4-C]pyridines and therapeutic uses thereof” (Samumed, LLC, priority 2015, dated 2019).

Type in all cases: cell-based
One assay relates to SW480 colon cancer cells. Kind of assay: Cell viability assay (CellTiter-Blue) in SW480 colon cancer cells. The following applies: Homo sapiens; for EC50: 96 h, SW480 cell viability, four days; for inhibition at 10 µM: SW480, read-out: percent inhibition at 10 μM. In a few lines:
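Fluorescence from resazurin reduced to resorufin by metabolically active cells was the read-out, taken after ~3 h with CellTiter-Blue.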
On the technique in general: The colour change of resazurin is a common sign of viable cells or microbes.

Assay [1] has as its system primary human mesenchymal stem cells (hMSCs). Put plainly: Induction of chondrogenesis in hMSCs (chondrogenic nodules, Rhodamine B/Nile Red). The conditions noted are these: 6 days; for Emax: relative to TGF-β3 (10 ng/mL) positive control, read-out: Max. Activity as % TGF-β3 activity; for EC50: concentration required to induce 50% levels of chondrogenesis vs TGF-β3, read-out: Conc (nM) of 50% TGF-β3 activity. The source says: Representative compounds were screened using primary human mesenchymal stem cells (hMSCs) to determine their ability to induce chondrogenesis (process by which cartilage is developed).
Human Mesenchymal Stem Cell Culture: Primary human mesenchymal stem cells (hMSCs) were purchased from Lonza (Walkersville, Md.) and expanded in Mesenchymal Stem Cell Growth Media (Lonza). Cells between passage 3 and 6 were used for the experiments.
Number of nodules in each well was normalized to the average of 3 DMSO treated wells on the same plate using Excel (Microsoft Inc.). The normalized averages (fold change over DMSO) of 3 replicate wells for each compound concentration were calculated. Due to solubility limitations of some of the compounds, curve fitting was incomplete leading to inaccurate EC50 determinations.
Using TGF-β3 as a positive control, the concentration of representative compounds required to induce 50% levels of chondrogenesis is reported. In addition, the maximum activity of each compound and the respective dose that each compound reached maximum chondrogenesis activity is reported.

Assay [2] has as its system Wnt activity (Sp5-Luc reporter, SW480 colon carcinoma cells). Put plainly: Screening assay for Wnt activity: Sp5-Luc reporter gene assay in SW480 colon carcinoma cells. The conditions noted are these: Homo sapiens; for inhibition at 10 µM: SW480, read-out: percent inhibition at 10 μM; for EC50: Sp5-Luc reporter, SW480 cells, overnight incubation. Summed up: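 SW480 colon carcinoma cells stably carrying Sp5 promoter (eight TCF/LEF sites)-driven firefly luciferase, plated at 4,000 cells/well in 1% FBS medium and incubated overnight at 37° C. Luminescence normalised to DMSO-only cells; EC50 from four-parameter variable-slope nonlinear regression.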
In general terms: In a reporter assay the amount or activity of a reporter protein is the signal.

For assay [3], the system named is primary human fibroblasts derived from IPF patients (LL29 cells) treated with TGF-β1. Put plainly: Inhibition of the fibrotic process: αSMA staining in TGF-β1 treated LL29 fibroblasts. The conditions noted are these: Fibroblast; for EC50: 96 h, % αSMA positive LL29 cells, TGF-β1 20 ng/mL, 4 days. Summed up: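 Read-out after 4-day incubation: αSMA staining with 1 μM SYTOX green nuclear counterstain (30 min, room temperature). Cells were LL29 primary fibroblasts from IPF patients, in 1% FBS F12, exposed to TGF-β1 with test compound, referenced to TGF-β1/DMSO control wells.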

The next assay concerns IL-6 (THP-1 cells). Put plainly: IL-6 inhibition in LPS-stimulated THP-1 monocytes (HTRF). The following applies: Homo sapiens; for EC50: IL-6, THP-1 cells, LPS 500 ng/mL, 22 hours. Summed up:
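THP-1 cells kept 24 h in 1% FBS medium, exposed to compound 2 h at 37 °C, then stimulated with 500 ng/mL LPS for 22 h. Secreted IL-6 quantified by HTRF (665/620 nm ratio), duplicates. Values normalized to DMSO; EC50 by four-parameter variable-slope regression.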
A general note: In TR-FRET formats the signal depends on donor and acceptor labels being close together.

One may read the inhibition as the change of the read-out against control, counted positive when it falls.

Turning to `CS(=O)(=O)NCc1cc(F)cc(-c2nccc3[nH]c(-c4n[nH]c5cnc(-c6cncc(NC(=O)C7CCC7)c6)cc45)cc23)c1` [Compound 497, N-(5-(3-(4-(3-Fluoro-5-(methylsulfonamidomethyl)phenyl)-1H-pyrrolo[3,2-c]pyridin-2-yl)-1H-pyrazolo[3,4-c]pyridin-5-yl)pyridin-3-yl)cyclobutanecarboxamide], the EC50 (in the assay on SW480 colon cancer cells; in assay [2]; in assay [3]; in the assay with IL-6 (THP-1 cells)) was greater than 10000 nM throughout. For the same molecule, the inhibition at 10 µM came out at 12.8% in the assay on SW480 colon cancer cells; 27.2% in assay [2]; 0% in assay [3] (read-out: percent inhibition at 10 μM); 38.8% in the assay with IL-6 (THP-1 cells) (THP-1, read-out: percent inhibition at 10 μM). Besides, the Emax in assay [1] amounted to 16%.
For the molecule `Fc1ccc(-c2nccc3[nH]c(-c4n[nH]c5cnc(-c6cncc(CN7CCC(F)(F)C7)c6)cc45)cc23)cc1` [Compound 54, 5-(5-((3,3-Difluoropyrrolidin-1-yl)methyl)pyridin-3-yl)-3-(4-(4-fluorophenyl)-1H-pyrrolo[3,2-c]pyridin-2-yl)-1H-pyrazolo[3,4-c]pyridine], the EC50 was 1100 nM in the assay with SW480 colon cancer cells; 10 nM in assay [1]; 291 nM in assay [2]; 28 nM in assay [3]; 468 nM with IL-6 (THP-1 cells). Besides, the Emax in assay [1] amounted to 61%.
With `CN1CCN(c2nccc3[nH]c(-c4n[nH]c5cnc(-c6cncc(NC(=O)C(C)(C)C)c6)cc45)cc23)CC1` [Compound 232, N-(5-(3-(4-(4-Methylpiperazin-1-yl)-1H-pyrrolo[3,2-c]pyridin-2-yl)-1H-pyrazolo[3,4-c]pyridin-5-yl)pyridin-3-yl)pivalamide], the EC50 was greater than 10000 nM in the assay with SW480 colon cancer cells; 10 nM in assay [1]; 1880 nM in assay [2]; 756 nM in assay [3]; 388 nM in the assay with IL-6 (THP-1 cells). Also, the inhibition at 10 µM in the assay on SW480 colon cancer cells amounted to 62.2%. Besides, the Emax in assay [1] is 88%.
In the case of `c1cncc(-c2cc3c(-c4cc5cnccc5[nH]4)n[nH]c3cn2)c1` [Compound 256, 5-(Pyridin-3-yl)-3-(1H-pyrrolo[3,2-c]pyridin-2-yl)-1H-pyrazolo[3,4-c]pyridine], the EC50 amounted to 628 nM with SW480 colon cancer cells; 30 nM in assay [1]; 133 nM in assay [2]; 25 nM in assay [3]; 362 nM with IL-6 (THP-1 cells). The Emax in assay [1] was found to be 62%.
With `CCC(=O)Nc1cncc(-c2cc3c(-c4cc5c(-c6cccc(F)c6)nccc5[nH]4)n[nH]c3cn2)c1` [Compound 1, N-(5-(3-(4-(3-Fluorophenyl)-1H-pyrrolo[3,2-c]pyridin-2-yl)-1H-pyrazolo[3,4-c]pyridin-5-yl)pyridin-3-yl)propionamide], the EC50 was determined as 931 nM in the assay on SW480 colon cancer cells; 30 nM in assay [1]; 305 nM in assay [2]; 235 nM in assay [3]; 733 nM with IL-6 (THP-1 cells). Moreover, the Emax in assay [1] amounted to 51%.
With `CC(C)C(=O)Nc1cncc(-c2cc3c(-c4cc5cnccc5[nH]4)n[nH]c3cn2)c1` [Compound 261, N-(5-(3-(1H-Pyrrolo[3,2-c]pyridin-2-yl)-1H-pyrazolo[3,4-c]pyridin-5-yl)pyridin-3-yl)isobutyramide], the EC50 in the assay with SW480 colon cancer cells turned out to be 2250 nM; in assay [1] it was 30 nM; in assay [2] it was 399 nM; in assay [3], 472 nM; in the assay with IL-6 (THP-1 cells), 623 nM. Moreover, the Emax in assay [1] stood at 61%.
For the molecule `Fc1ccccc1-c1nccc2[nH]c(-c3n[nH]c4cnc(-c5cn[nH]c5)cc34)cc12` [Compound 539, 3-(4-(2-Fluorophenyl)-1H-pyrrolo[3,2-c]pyridin-2-yl)-5-(1H-pyrazol-4-yl)-1H-pyrazolo[3,4-c]pyridine], the EC50 in the assay with SW480 colon cancer cells is greater than 10000 nM; in assay [1], 10 nM; in assay [2], 30 nM; in assay [3], 76 nM; in the assay on IL-6 (THP-1 cells) it was 393 nM. In addition, the inhibition at 10 µM in the assay on SW480 colon cancer cells stood at 44.4%. Moreover, the Emax in assay [1] was 89%.
Turning to `CN(C)CCOc1cncc(-c2cc3c(-c4cc5c(-c6ccc(F)cc6)nccc5[nH]4)n[nH]c3cn2)c1` [Compound 531, 2-((5-(3-(4-(4-Fluorophenyl)-1H-pyrrolo[3,2-c]pyridin-2-yl)-1H-pyrazolo[3,4-c]pyridin-5-yl)pyridin-3-yl)oxy)-N,N-dimethylethan-1-amine], the EC50 in the assay on SW480 colon cancer cells came out at 3590 nM; in assay [1] it was 900 nM; in assay [2] it was 3200 nM; in assay [3], 920 nM; with IL-6 (THP-1 cells), 3500 nM. Further, the Emax in assay [1] came out at 113%.
In the case of `CN1CCN(c2nccc3[nH]c(-c4n[nH]c5cnc(-c6cncc(NC(=O)C7CCCCC7)c6)cc45)cc23)CC1` [Compound 247, N-(5-(3-(4-(4-Methylpiperazin-1-yl)-1H-pyrrolo[3,2-c]pyridin-2-yl)-1H-pyrazolo[3,4-c]pyridin-5-yl)pyridin-3-yl)cyclohexanecarboxamide], the EC50 with SW480 colon cancer cells was greater than 10000 nM; in assay [1] it was 10 nM; in assay [2], 3420 nM; in assay [3], 2990 nM; in the assay with IL-6 (THP-1 cells), 4600 nM. Besides, the inhibition at 10 µM in the assay with SW480 colon cancer cells worked out at 40.3%. Besides, the Emax in assay [1] was 61%.
As to `CCC(=O)Nc1cncc(-c2cc3c(-c4cc5c(N6CCN(C)CC6)nccc5[nH]4)n[nH]c3cn2)c1` [Compound 225, N-(5-(3-(4-(4-Methylpiperazin-1-yl)-1H-pyrrolo[3,2-c]pyridin-2-yl)-1H-pyrazolo[3,4-c]pyridin-5-yl)pyridin-3-yl)propionamide], the EC50 in the assay on SW480 colon cancer cells is greater than 10000 nM; in assay [1], 30 nM; in assay [2] it was greater than 10000 nM; in assay [3], 5300 nM; in the assay on IL-6 (THP-1 cells), 743 nM. For the same molecule, the inhibition at 10 µM in the assay on SW480 colon cancer cells amounted to 7.9%; in assay [2], 52.4%. Further, the Emax in assay [1] came to 70%.
Regarding `Fc1ccccc1-c1nccc2[nH]c(-c3n[nH]c4cnc(-c5cncc(CN6CCCC6)c5)cc34)cc12` [Compound 70, 3-(4-(2-Fluorophenyl)-1H-pyrrolo[3,2-c]pyridin-2-yl)-5-(5-(pyrrolidin-1-ylmethyl)pyridin-3-yl)-1H-pyrazolo[3,4-c]pyridine], the EC50 worked out at 3160 nM in the assay on SW480 colon cancer cells; 10 nM in assay [1]; 1980 nM in assay [2]; 1250 nM in assay [3]; 2320 nM in the assay with IL-6 (THP-1 cells). Also, in assay [1], the Emax stood at 69%.
Regarding `CC(C)(C)CC(=O)Nc1cncc(-c2cc3c(-c4cc5cnccc5[nH]4)n[nH]c3cn2)c1` [Compound 268, N-(5-(3-(1H-Pyrrolo[3,2-c]pyridin-2-yl)-1H-pyrazolo[3,4-c]pyridin-5-yl)pyridin-3-yl)-3,3-dimethylbutanamide], the EC50 in the assay on SW480 colon cancer cells stood at 5040 nM; in assay [1] it was 10 nM; in assay [2], 1890 nM; in assay [3], 4010 nM; with IL-6 (THP-1 cells) it was 3460 nM. In assay [1], the Emax was 59%.
Consider `O=C(Nc1cncc(-c2cc3c(-c4cc5cnccc5[nH]4)n[nH]c3cn2)c1)C1CCCCC1` [Compound 275, N-(5-(3-(1H-Pyrrolo[3,2-c]pyridin-2-yl)-1H-pyrazolo[3,4-c]pyridin-5-yl)pyridin-3-yl)cyclohexanecarboxamide], for which the EC50 was 5200 nM with SW480 colon cancer cells; 30 nM in assay [1]; 1620 nM in assay [2]; 1880 nM in assay [3]; 2690 nM in the assay with IL-6 (THP-1 cells). The Emax in assay [1] stood at 59%.
On to `O=C(Nc1cncc(-c2cc3c(-c4cc5c(-c6ccc(F)cc6)nccc5[nH]4)n[nH]c3cn2)c1)C1CC1` [Compound 48, N-(5-(3-(4-(4-Fluorophenyl)-1H-pyrrolo[3,2-c]pyridin-2-yl)-1H-pyrazolo[3,4-c]pyridin-5-yl)pyridin-3-yl)cyclopropanecarboxamide], for which the EC50 in the assay on SW480 colon cancer cells stood at 666 nM; in assay [1] it was 30 nM; in assay [2] it was 844 nM; in assay [3], 404 nM; in the assay with IL-6 (THP-1 cells), 1050 nM. In addition, the Emax in assay [1] was 96%.
